Results as given in patent publication US20240368104A1, “Novel Dialkoxynaphtho[2,3-C]Furan-1(3H)-One Derivatives and Pharmaceutical Composition For Preventing or Treating Respiratory Disease or SARS-COV-2 Infection Disease, Comprising Same” (priority 2021, published 2024).
Where a name gives a salt, the structure may show the parent alone. Read-outs that look alike come from different tables or passages of the source.

Experiments:
SARS-COV-2 = assay: microbe, parasite or virus in culture; format: cell-based; design: SI (Selectivity Index, CC50/IC50): unit not given here; conditions: for SI (Selectivity Index, CC50/IC50): SARS-COV-2, values >50 assumed to be 50; for IC50: read-out: SARS-COV-2 inhibition (IC50)
in vitro = conditions: African green monkey
[1] = Severe acute respiratory syndrome coronavirus 2, Vero cells, 24 hours infection
[2] = Severe acute respiratory syndrome coronavirus 2, Vero, 24 h

SMILES	SI (Selectivity Index, CC50/IC50) (SARS-COV-2)	IC50 (SARS-COV-2; [1])	CC50 (in vitro)	IC50 (SARS-COV-2; [2])
COc1cc2c(OC)c3c(c(-c4ccc(N5CCOCC5)nc4)c2cc1OC)COC3=O [Example 267, 6,7,9-trimethoxy-4-(6-morpholinopyridin-3-yl)naphtho[2,3-c]furan-1(3H)-one]	1.00	> 50 µM	> 50 µM	
COc1cc2cc3c(c(-c4ccnc5ccc(F)cc45)c2cc1OC)C(=O)OC3 [Example 148, 9-(6-fluoroquinolin-4-yl)-6,7-dimethoxynaphtho[2,3-c]furan-1(3H)-one]	1.0	> 50 µM	> 50 µM	
COc1cc2cc3c(c(-c4cnc(N5CCC(C)CC5)nc4)c2cc1OC)C(=O)OC3 [Example 107, 6,7-dimethoxy-9-(2-(4-methylpiperidin-1-yl)pyrimidin-5-yl)naphtho[2,3-c]furan-(3H)-one hydrochloride]	35.49	1.41 µM	> 50 µM	
COc1cc2cc3c(c(N4CCN(CCN5CCOCC5)CC4)c2cc1OC)C(=O)OC3 [Example 143, 6,7-dimethoxy-9-(4-(2-morpholinoethyl)piperazin-1-yl)naphtho[2,3-c]furan-1(3H)-one]	1.0	> 50 µM	> 50 µM	
COc1cc2cc3c(c(N4CC(C)CC(C)C4)c2cc1OC)C(=O)OC3 (stereo not drawn) [Example 4, 9-(3,5-dimethylpiperidin-1-yl)-6,7-dimethoxynaphtho[2,3-c]furan-1(3H)-one]	4.45	11.2 µM	> 50 µM	
COc1cc2cc3c(c(-c4cnc(N(CCO)CCO)nc4)c2cc1OC)C(=O)OC3.Cl [Example 85, 9-(2-(bis(2-hydroxyethyl)amino)pyrimidin-5-yl)-6,7-dimethoxynaphtho[2,3-c]furan-1(3H)-one hydrochloride]	1.00		> 50 µM	> 50 µM
COc1ncc(-c2c3c(cc4cc(OC)c(OC)cc24)COC3=O)cn1 [Example 26, 6,7-dimethoxy-9-(2-methoxypyrimidin-5-yl)naphtho[2,3-c]furan-1(3H)-one]	9.52	5.25 µM	> 50 µM	
CCN(c1ncc(-c2c3c(cc4cc(OC)c(OC)cc24)COC3=O)cn1)C1CCCC1.Cl [Example 92, 9-(2-(cyclopentyl(ethyl)amino)pyrimidin-5-yl)-6,7-dimethoxynaphtho[2,3-c]furan-1(3H)-one hydrochloride]	42.34		> 50 µM	1.18 µM
COc1cc2cc3c(c(-c4cccc(N5CCCC5)c4)c2cc1OC)C(=O)OC3.Cl [Example 252, 6,7-dimethoxy-9-(3-(pyrrolidin-1-yl)phenyl)naphtho[2,3-c]furan-1(3H)-one]	1		> 50 µM	> 50 µM
COc1cc2cc3c(c(-c4ccc(N(C)c5nc(SC)n(C)n5)nc4)c2cc1OC)C(=O)OC3.Cl [Example 215, 6,7-dimethoxy-9-(6-(methyl(1-methyl-5-(methylthio)-1H-1,2,4-triazol-3-yl)amino)pyridin-3-yl)naphtho[2,3-c]furan-1(3H)-one]	2.55		> 50 µM	19.6 µM
COc1cc2cc3c(c(-c4cnc(N5CC(C)(C)OC(C)(C)C5)nc4)c2cc1OC)C(=O)OC3 [Example 114, 6,7-dimethoxy-9-(2-(2,2,6,6-tetramethylmorpholino)pyrimidin-5-yl)naphtho[2,3-c]furan-1(3H)-one]	1.0	> 50 µM	> 50 µM	
COc1ccc2nc(C)cc(-c3c4c(cc5cc(OC)c(OC)cc35)COC4=O)c2c1 [Example 155, 6,7-dimethoxy-9-(6-methoxy-2-methylquinolin-4-yl)naphtho[2,3-c]furan-1(3H)-one]	1.0	> 50 µM	> 50 µM	
COc1cc2cc3c(c(-c4ccc5[nH]ccc5c4)c2cc1OC)C(=O)OC3 [Example 34, 9-(1H-indol-5-yl)-6,7-dimethoxynaphtho[2,3-c]furan-1(3H)-one]	12.40	4.03 µM	> 50 µM	
COc1cc2cc3c(c(-c4cc5c(cc4OP(=O)(NCCN4CCOCC4)c4ccccc4)OCO5)c2cc1OC)C(=O)OC3 (stereo not drawn) [Example 280, 6-(6,7-dimethoxy-3-oxo-1,3-dihydronaphtho[2,3-c]furan-4-yl)benzo[d][1,3]dioxol-5-yl N-(2-morpholinoethyl)-P-phenylphosphoramidate]	25.56		> 50 µM	1.96 µM
CNc1cccc(-c2c3c(cc4cc(OC)c(OC)cc24)COC3=O)c1 [Example 257, 6,7-dimethoxy-9-(3-(methylamino)phenyl)naphtho[2,3-c]furan-1(3H)-one]	6.24	8.01 µM	> 50 µM	
COc1cc2cc3c(c(-c4ccc(Cl)nc4)c2cc1OC)C(=O)OC3 [Example 185, 9-(6-chloropyridin-3-yl)-6,7-dimethoxynaphtho[2,3-c]furan-1(3H)-one]	149.26	0.33 µM	> 50 µM	
CCN(c1ncc(-c2c3c(cc4cc(OC)c(OC)cc24)COC3=O)cn1)C1CCCCC1.Cl [Example 78, 9-(2-(cyclohexyl(ethyl)amino)pyrimidin-5-yl)-6,7-dimethoxynaphtho[2,3-c]furan-1(3H)-one hydrochloride]	18.80		> 50 µM	2.66 µM
COc1cc2cc3c(c(-c4cnc(N5C[C@H](C)O[C@@H](C)C5)nc4)c2cc1OC)C(=O)OC3 [Example 62, 9-(2-((2S,6S)-2,6-dimethylmorpholino)pyrimidin-5-yl)-6,7-dimethoxynaphtho[2,3-c]furan-1(3H)]	1.00	> 50 µM	> 50 µM	
COc1cc2cc3c(c(-c4cc5c(cc4OP(=O)(NCCN4CCOCC4)Oc4ccccc4)OCO5)c2cc1OC)C(=O)OC3 (stereo not drawn) [Example 279, 6-(6,7-dimethoxy-3-oxo-1,3-dihydronaphtho[2,3-c]furan-4-yl)benzo[d][1,3]dioxol-5-yl phenyl (2-morpholinoethyl)phosphoramidate]	8.21		> 50 µM	6.09 µM
COc1cc2cc3c(c(-c4cnc(N(C)CC(OC)OC)nc4)c2cc1OC)C(=O)OC3 [Example 94, 9-(2-((2,2-dimethoxyethyl)(methyl)amino)pyrimidin-5-yl)-6,7-dimethoxynaphtho[2,3-c]furan-1(3H)-one]	10.16	4.92 µM	> 50 µM	
CCN(Cc1ccncc1)c1ccc(-c2c3c(cc4cc(OC)c(OC)cc24)COC3=O)cn1 [Example 226, 9-(6-(ethyl(pyridin-4-ylmethyl)amino)pyridin-3-yl)-6,7-dimethoxynaphtho[2,3-c]furan-1(3H)-one]	7.47	6.69 µM	> 50 µM	
COc1cc2cc3c(c(-c4cnc(N)cn4)c2cc1OC)C(=O)OC3 [Example 30, 9-(5-aminopyrazin-2-yl)-6,7-dimethoxynaphtho[2,3-c]furan-1(3H)-one]	1.00	> 50 µM	> 50 µM	
COc1cc2cc3c(c(-c4cc5c(cc4OP(=O)(NC(C)C)c4ccccc4)OCO5)c2cc1OC)C(=O)OC3 (stereo not drawn) [Example 281, 6-(6,7-dimethoxy-3-oxo-1,3-dihydronaphtho[2,3-c]furan-4-yl)benzo[d][1,3]dioxol-5-yl N-isopropyl-P-phenylphosphoramidate]	3.45		> 50 µM	14.5 µM
COc1cc2cc3c(c(-c4ccc(N(C)C(C)=O)nc4)c2cc1OC)C(=O)OC3 [Example 230, N-(5-(6,7-dimethoxy-3-oxo-1,3-dihydronaphtho[2,3-c]furan-4-yl)pyridin-2-yl)-N-methylacetamide]	2.45	20.4 µM	> 50 µM	
COc1cc2cc3c(c(-c4ccc(N(C)CCc5cn(C)c6ccccc56)nc4)c2cc1OC)C(=O)OC3 [Example 196, 6,7-dimethoxy-9-(6-(methyl(2-(1-methyl-1H-indol-3-yl)ethyl)amino)pyridin-3-yl)naphtho[2,3-c]furan-1(3H)-one]	20.54	2.43 µM	> 50 µM	
CNc1ccc(-c2c3c(cc4cc(OC)c(OC)cc24)COC3=O)cc1 [Example 246, 6,7-dimethoxy-9-(4-(methylamino)phenyl)naphtho[2,3-c]furan-1(3H)-one]	15.18	3.29 µM	> 50 µM	
COc1cc2cc3c(c(-c4ccc(C(=O)c5ccccc5)s4)c2cc1OC)C(=O)OC3 [Example 53]	19.94	2.51 µM	> 50 µM	
